From a melting point compilation (Tetko et al.; mined from patent text by program, amines drawn as free bases though some values may be those of a salt)

With O=C1CN(C(=O)COc2cc(-c3ccccc3)nc3ccccc23)CCN1 the melting point was 215 °C.
O=C(NCC1(c2ccccc2)CCCCC1)Nc1ccc(Cl)cc1 showed a melting point of 164 to 166 °C.
With OCC(O)Cc1ccc(Br)cc1 (configuration not stated) the melting point was 60.6 °C.
In the case of COc1ccccc1C=C1NC(=O)N(C)C1=O, the melting point is reported as 189 to 190 °C.
CCN(CC)C(=O)NC1CC2c3cccc4[nH]c(CCc5ccc(OC)cc5)c(c34)CC2N(C)C1 (configuration not stated) showed a melting point of 147 to 149 °C.
In the case of FC(F)(F)c1ccc(Sc2nc(-c3ccccc3)c(-c3ccccc3)[nH]2)cc1, the melting point is reported as 227 to 229 °C.
Work on COP(=S)(OC)Oc1nsc(C)c1C#N yielded a melting point of 52 °C.
COC(=O)c1cc(=O)c2oc3ccccc3c(=O)c2[nH]1 gave a melting point of 244 to 245 °C.
O=C(Cc1ccc2ccccc2c1)N1CC=C(c2cccc(C(F)(F)F)c2)CC1 gave a melting point of 125 to 130 °C.
In the case of NC(=O)c1nc(-c2ccccc2)c(-c2ccc(=O)[nH]n2)s1, the melting point is reported as greater than 250 °C.
O=c1c2ccccc2sc2cccc(Oc3cc(Cl)cc(Cl)c3)c12 gave a melting point of 207 to 213 °C.
Compound CCCN1C(=O)/C(=C/c2c[nH]c3ncccc23)N=C1C has a melting point of 206 °C.
O=c1n(-c2ccc(OCC(F)(F)C(F)F)cc2)cnn1CC(O)(Cn1cncn1)c1ccc(F)cc1F (racemic) showed a melting point of 79 to 80 °C.
For Cc1ccccc1C(=S)N1CC1C#N (configuration not stated), the melting point was 67 to 69 °C.
Compound CC(C)n1c(=O)nc(-c2ccc3c(c2)OCCO3)c2cc3c(cc21)OCO3 has a melting point of 214 to 217 °C.
With CCOC(=O)c1cc2n(c1)CN(C(=O)OCC)c1ccccc1-2 the melting point was 80 to 82 °C.
Work on Nc1sc2c(c1C(=O)c1ccc3c(c1)Cc1ccccc1-3)CCN(Cc1ccccc1)C2 yielded a melting point of 197 to 200 °C.
CCCCCCCCCCCCCCCC(N=C=O)S(=O)(=O)c1ccc2ccccc2c1 (configuration not stated) gave a melting point of 152 to 155 °C.
Cc1ccc(-n2nc(C(C)(C)C)cc2NC(=O)Nc2ccc(-c3cnc4c(c3)NC(=O)CO4)c3ccccc23)cc1 gave a melting point greater than 200 °C.
For CC(O)c1ccc(N)c(S(N)(=O)=O)c1 (configuration not stated), the melting point was 160 to 162 °C.
In the case of C[Si]1(CC(CN)CC(=O)O)CCCC1 (configuration not stated), the melting point is reported as 133 to 135 °C.
Work on CCCCc1nc(C(=O)OC)c(C(=O)OC)[nH]1 yielded a melting point of 88 °C.
With O=C1C=CC(c2ccccc2)(c2ccccc2)C=C1O the melting point was 145 °C.
O=[PH]1Cc2ccc3ccccc3c2-c2c(ccc3ccccc23)C1 gave a melting point of 242 to 246 °C.
In the case of COc1ccc2c(c1OC)CCC(C#N)C2C#N (configuration not stated), the melting point is reported as 107 to 108 °C.
CCCc1nn(CC)c2c(=O)n(CCOc3cccc(OC(C)(C)C(=O)O)c3)c(C)nc12 gave a melting point of 147 to 149 °C.
With CC(C)CCN1C(=O)C(NC(=O)Oc2cccc(N(C)C)c2)C(=O)N(c2ccccc2)c2ccc(Cl)cc21 (configuration not stated) the melting point was 199 to 200 °C.
c1ccc2c(c1)nc1c3c(onc32)CCC1 gave a melting point of 149 to 150 °C.
In the case of CNc1ccccc1CS(=O)c1nc2ncccc2[nH]1 (configuration not stated), the melting point is reported as 120 °C.
Compound CCCCCCCCCCCCC(Oc1ccc(NS(=O)(=O)CCCC)cc1)C(=O)Nc1c(C)cc(C)c(-c2n[nH]c3cc(C(C)(C)C)nn23)c1C (configuration not stated) has a melting point of 117 to 120 °C.
Cc1cccc2c(-c3ccccc3)c([N+](=O)[O-])oc12 showed a melting point of 122 to 127 °C.
Work on COc1ccc(CN2Cc3c(-c4nc(C5CC5)no4)ncn3-c3ccc(OC)cc3C2=O)c(OC)c1 yielded a melting point greater than 240 °C.
Cc1ccc(-c2nc(CCl)cs2)s1 showed a melting point of 89 to 90 °C.
In the case of COC(=O)C[C@H](CCC(=O)OCc1ccccc1)NC(=O)OC(C)(C)C, the melting point is reported as 97 to 98 °C.
CCCCOc1ccc(NC(=O)c2cnc(C(=O)OC)c(Cl)c2)cc1 showed a melting point of 121 to 123 °C.
COc1cc(C=CC(=O)CCCOc2ccccc2)ccc1O showed a melting point of 67 to 70 °C.
CN(C)/C=C/C(=C(C#N)C#N)c1ccc2cc(N(C)C)ccc2c1 gave a melting point of 213 to 215 °C.
Work on COc1ccc(OCC(O)CNC(C)(C)C)c(C)c1C (configuration not stated) yielded a melting point of 73 to 75 °C.
CC(=O)OC1CC2=CC(=NO)C3C4CCCC4(C)CCC3C2(C)C(OC(C)=O)C1 (configuration not stated) showed a melting point of 236 to 238 °C.
Compound C/C(=C/C#N)c1ccc2c(c1)C(C)(C)OC(=O)N2 has a melting point of 213 to 215 °C.
CCS(=O)(=O)CCC(=O)NNC(=O)N1Cc2ccccc2Oc2ccc([N+](=O)[O-])cc21 gave a melting point of 198 to 200 °C.
With CC(=O)Nc1nc2ccnc(-c3cccc(NS(=O)(=O)c4ccc(C)cc4)c3)n2n1 the melting point was 208 to 211 °C.
CCOC(=O)c1sc2c(ccc(=O)n2-c2ccccc2)c1Br gave a melting point of 202 to 206 °C.
In the case of COc1cc(OC)c2c(c1)S(=O)(=O)NC2=O, the melting point is reported as 258 °C.
With Cc1nc(O)c(C)c(NCC2CC2)n1 the melting point was 227 to 228 °C.
Compound O=C1c2ccccc2C(=O)c2sc(-c3ccc(F)cc3F)nc21 has a melting point greater than 260 °C.
Work on CCOC(=O)c1cc(-n2c(=O)c3c(n(C)c2=O)CSC3)ccc1Cl yielded a melting point of 203 to 206 °C.
CC(OCc1cccnc1)C(=O)Nc1ccc(C(=O)Nc2ccccc2N)cc1 (configuration not stated) showed a melting point of 144 to 148 °C.
Compound CC(C)(C)c1cc(NC(=O)NCc2ccc(N)cc2)cc(C(C)(C)C)c1O has a melting point of 194 to 195 °C.
Work on Nc1cc(CO)cc(S(N)(=O)=O)c1Oc1cccc(C(F)(F)F)c1 yielded a melting point of 133 to 134 °C.
Compound O=C(O)c1ccc2c(=O)nc(-c3ccccn3)sc2c1 has a melting point of 295 °C.
CCCCCCCNCCCCCCCCSc1nc(-c2ccccc2)c(-c2ccccc2)[nH]1 showed a melting point of 87 to 89 °C.
COC(=O)c1ccc(=O)n(CCNC(=O)c2ccccc2)c1 showed a melting point of 190 to 191 °C.
COc1ccccc1Cn1c(=O)c2c(N3CCN(C)CC3)cc(Cl)cc2n(Cc2ccccc2)c1=O showed a melting point of 91 to 96 °C.
CN1CCCC(CC(=O)c2ccc(Cl)c(Cl)c2)C1 (configuration not stated) gave a melting point of 69 to 71 °C.
Work on O=C(CCl)Nc1nc(Cl)c(-c2ccccc2)s1 yielded a melting point of 215 to 216 °C.
With c1ccc(COc2cccc3nc[nH]c23)cc1 the melting point was 165 to 167 °C.
Work on CSc1nc(NC2CCCC2)c2ccnc-2[nH]1 yielded a melting point of 190 to 191 °C.
For CCCCNc1c(C(=O)OCC)c(C)nc2nnsc12, the melting point was 57 to 58 °C.
CC(=O)Nc1cccc(C(C)(C)O)c1CO showed a melting point of 138 °C.
Work on CCN(C=Nc1ccncc1O)CC yielded a melting point of 104 to 106 °C.
COC(=O)CC1Oc2ccccc2Oc2ccccc21 (configuration not stated) gave a melting point of 72 to 74 °C.
O=C(O)c1cn(C2CC2)c2cc(Cl)ccc2c1=O gave a melting point of 307 to 308 °C.
For O=C(O)CCc1cn(Cc2ccc(OCc3ccccc3)cc2)nc1-c1ccccc1, the melting point was 147 to 148 °C.
For CC(C)[C@H](NC(=O)[C@H](Cc1ccccc1)NC(=O)c1ccccc1)C(=O)O, the melting point was 191 °C.
COc1ccc2cnoc2c1Cl showed a melting point of 115 to 118 °C.
For CCOP(=O)(CCN1CCC(N(CCCN)S(=O)(=O)c2ccc(Nc3nccc(Nc4ccc(F)cc4)n3)cc2)CC1)OCC, the melting point was 125 to 130 °C.
Compound Cc1cc(C#N)cc(C)c1Oc1ncnc(Nc2ccc(C#N)cc2)n1 has a melting point of 248 to 250 °C.
Compound COC(=O)c1ccc(OC)cc1S(N)(=O)=O has a melting point of 135 to 139 °C.
With N#Cc1c([N+](=O)[O-])ccc(N2CCCC2)c1Cl the melting point was 170 to 173 °C.
With N#Cc1ccc(NCc2cc3c(cc2O)CCCO3)cc1 the melting point was 162 to 164 °C.
Work on CCC(C)n1nnc2c(N=C=S)cccc21 (configuration not stated) yielded a melting point of 77 to 78 °C.
Compound Cc1ncc2n1-c1ccccc1C(c1ccccc1)=NC2 has a melting point of 180 to 182 °C.
CN1C(c2cccc(F)c2)c2ccccc2S1(=O)=O (single isomer, unassigned; (+)) showed a melting point of 147 °C.
O=C(NCCOc1ccc(CC(Sc2ccccc2)C(=O)O)cc1)c1ccc(-c2ccccn2)cc1 (configuration not stated) gave a melting point of 75 to 77 °C.
COC(=O)NS(=O)(=O)Oc1c(C(C)C)cccc1C(C)C gave a melting point of 92 to 95 °C.
In the case of CCNC(=O)c1c(Br)ccc(OC)c1Cl, the melting point is reported as 181 to 182 °C.
COC(=O)C1CCC2C3CCC4CC(O)CCC4(C)C3C(NC(=O)OCC(Cl)(Cl)Cl)CC12C (configuration not stated) gave a melting point of 140 to 143 °C.
C[Si](C)(C)c1cccc2cc(C(=O)Nc3ccc(N4CC(O)C4)nc3)n(Cc3cccc(F)c3)c12 gave a melting point of 215 to 217 °C.
In the case of O=C1Nc2ccccc2N(C(=O)N2CCCC(CCCN3CCCC3)C2)c2ncccc21 (configuration not stated), the melting point is reported as 174 to 176 °C.
Nc1ccc(-c2nccc(-c3nc(-c4ccc(C(F)(F)F)cc4)cc(C(F)(F)F)n3)n2)cn1 gave a melting point of 236 °C.
In the case of CC(=O)OCC(=O)C1CCC2C3CCC4CC(O)C(N5CCOC(C)(C)C5)CC4(C)C3CCC12C (configuration not stated), the melting point is reported as 174 to 175 °C.
Compound Cc1nc(C)c(C(O)=C(C#N)c2nn(-c3ccccc3)nc2C)s1 has a melting point of 117 to 118 °C.
With CCc1ncc2n1N=C(c1ccc(N)cc1)c1cc3c(cc1C2)OCO3 the melting point was 135 to 138 °C.
For Nc1ccc(C(=O)c2c(F)cccc2F)c(N)n1, the melting point was 179 to 181 °C.
Compound Clc1ccc(-c2nc(Cl)cc(NCCN3CCOCC3)n2)cc1 has a melting point of 127 to 129 °C.
Compound CN(C)CCCC(=O)Nc1nc2c(s1)-c1c(cnn1-c1ccccc1)C2 has a melting point of 218 to 222 °C.
For CCOC(=O)C1(Sc2ccccc2[N+](=O)[O-])Cc2ccc(N(C)C)cc2NC1=O (configuration not stated), the melting point was 174 to 176 °C.
Work on O=C1CNC(c2cc(Br)cc(-c3ccsc3)c2)=NN1CC(F)(F)F yielded a melting point of 167 to 169 °C.
Compound CCc1ccc(Cn2cc(-c3cn(C4CC(O)C(CO)O4)c(=O)[nH]c3=O)nn2)cc1 (configuration not stated) has a melting point of 201 °C.
For Cc1nc(-c2nc(-c3ccc(F)cc3)c(-c3ccc(S(C)(=O)=O)cc3)s2)cs1, the melting point was 184 to 186 °C.
Compound CNC(=O)c1ccccc1Nc1nc(Nc2ccc3c(c2)OCCN(C)C3=O)ncc1Cl has a melting point of 288 to 289 °C.
Compound COc1cc(NC(=O)N[C@H]2CCCCNC2=O)c(O)c(C(C)(C)C)c1 has a melting point of 178 to 179 °C.
With OC1CCCc2cnc3cc(OCc4ccccc4)ccc3c21 (configuration not stated) the melting point was 155 to 157 °C.
CCCCC1Cc2c(n(-c3ccc(F)cc3)c3ncccc3c2=O)O1 (configuration not stated) gave a melting point of 243 to 245 °C.
Work on CCCC(=O)C(=C1NCCCS1)[N+](=O)[O-] yielded a melting point of 54 to 58.5 °C.
CCOC(=O)c1ccc(F)c(-c2cccc3cc(CBr)sc23)c1 gave a melting point of 143 to 144 °C.
For Cc1ccc(S(=O)(=O)Oc2ccc(C=O)cc2OS(=O)(=O)c2ccc(C)cc2)cc1, the melting point was 95 to 97 °C.
Compound CCCc1c(OCc2cccc(C(=O)O)c2)ccc(C(C)=O)c1O has a melting point of 216 to 220 °C.
Compound Cc1oc(-c2ccccc2)nc1CCOc1ccc(CC(C)(C)C(=O)O)cc1 has a melting point of 133 to 134 °C.
Compound O=C1NCCc2sccc21 has a melting point of 94 °C.
Work on CCn1ncc2c(NCC3CCCCC3)c3cc(OCC(O)CO)ccc3nc21 (configuration not stated) yielded a melting point of 197 to 199 °C.
